{"source": "patent US7662547B2", "about": "“Compositions and methods for detecting and treating HIV infections” (priority 2006, dated 2010)", "key": {"T cells": {"tested_on": "T cells", "assay": "Cell cycle analysis of T cells", "format": "cell-based, human"}, "HIV-1 [1]": {"tested_on": "HIV-1", "assay": "HIV-1 infection of transformed CEM-SS cells", "format": "cell-based, HIV-1NL4-3", "procedure": "Thus, the effect of Jas on T cell activity was determined. FIG. 3A illustrates inhibition of HIV-1 latent infection by Jas. Effects of Jas on LFA-1 activation also were tested. Jas treated or untreated resting T cells were activated by anti-CD3/CD28 bead and stained with human ICAM-1/Fc chimera and analyzed by flow cytometer. The effects of Jas on IL-2 secretion also were measured. […] Cells were treated with Jas for 2 hours, washed, infected with HIV-1 for 5 days, then activated by anti-CD3/CD28 bead. […] Following infection, cellular DNA was PCR amplified for viral late DNA and β-actin pseudogene. Cells were pre-activated with PHA plus IL-2, then treated and infected as in FIG. 3A. […] CEM-SS cell were treated and infected as in FIG. 3A. Effects of Jas on HIV-1 infection of resting T cells pre-stimulated with anti-CD4/CXCR4 bead (2 beads/cell) are shown in FIG. 3E. Pre-stimulated cells were treated and infected as in FIG. 3A."}, "HIV-1 [2]": {"tested_on": "HIV-1", "assay": "PCR amplification of intracellular viral late DNA (viral entry)", "format": "cell-based, HIV-1NL4-3", "details": "120 nM", "procedure": "To remove plasmid DNA contamination, viral stock was treated with Benzonase (Novagen, Madison, WI) (250 U/ml) at […] for 15 min before infection. Total cellular DNA were purified using SV total RNA isolation kit as recommended by the manufacture (Promega, Madison, WI). For detection of viral late reverse transcription products by PCR, forward primer HIV/Tat-Rev-5’(5′[…] 3′; SEQ ID NO: 6) and reverse primer LTR-gag2 (5′[…] 3′; SEQ ID NO: 7) were used. PCR was carried out in 1× Ambion PCR buffer, 125 μM dNTP, 50 pmol each primer, 1U SuperTaq Plus (Ambion Inc. Austin, TX) with 30 cycles at 94° C. for 20 seconds, 68° C. for 60 seconds. For relative quantification, the cellular-actin pseudogene were co-amplified using QuantumRNA-actin Internal Standards (Ambion Inc. Austin, TX), with a ratio from 5/5 to 1/9 for actin primer/competitor.\nThus, the effect of Jas on T cell activity was determined. FIG. 3A illustrates inhibition of HIV-1 latent infection by Jas. Effects of Jas on LFA-1 activation also were tested. Jas treated or untreated resting T cells were activated by anti-CD3/CD28 bead and stained with human ICAM-1/Fc chimera and analyzed by flow cytometer. The effects of Jas on IL-2 secretion also were measured. […] Cells were treated with Jas for 2 hours, washed, infected with HIV-1 for 5 days, then activated by anti-CD3/CD28 bead. […]"}, "IL-2 secretion": {"tested_on": "IL-2 secretion", "assay": "IL-2 ELISA of cell culture supernatant after T cell activation", "format": "cell-based, human", "procedure": "IL-2 release into cell culture supernatant was detected by a human IL-2 ELISA development kit (PeproTech, Rocky Hill, N.J.) according to the manufacture's instruction. Briefly, each well of a plate was coated with 100 μl of capture antibody (1 μg/ml) and incubated overnight at room temperature, then washed and blocked with 300 μl of blocking solution for one hour at room temperature. Samples in plates were incubated for 1 hour at 37° C., then washed and incubated with 100 μl of detection antibody (0.5 μg/ml) for 1 hour at 37° C. Plates were washed and incubated with 100 μl of the avidin-peroxidase conjugate (1:2000 dilution) for 30 minutes at room temperature followed by washing and incubation with 100 μl of Tetramethylbenzidine (TMB) substrate buffer. Plates were kinetically read using ELx808 automatic microplate reader (Bio-Tek Instruments, Inc. Winooski, Vt.) at 630 nm."}}}
{"compound": "C/C1=C\\[C@H](C)C[C@H](C)OC(=O)C[C@H](c2ccc(O)cc2)NC(=O)[C@@H](Cc2c(Br)[nH]c3ccccc23)N(C)C(=O)[C@H](C)NC(=O)[C@@H](C)C1", "note": "[Jas, Jasplakinolide]", "values": [{"measurement": "cell cycle arrest", "setting": "T cells; 120 nM", "result": "no cell cycle arrest"}, {"measurement": "cell cycle arrest", "setting": "T cells; 3μM", "result": "arrested cells in S phase"}, {"measurement": "inhibition of HIV replication in GEM-SS", "setting": "HIV-1 [1]; 3μM", "result": "did inhibit HIV replication"}, {"measurement": "inhibition of HIV replication in transformed CEM-SS", "setting": "HIV-1 [1]; similar Jas treatment (120 nM)", "result": "no inhibition"}, {"measurement": "intracellular viral DNA, treated vs untreated cells", "setting": "HIV-1 [2]", "result": "did not detect any difference"}, {"measurement": "effect on IL-2 secretion", "setting": "IL-2 secretion; 120 nM and below", "result": "no significant effect"}, {"measurement": "effect on IL-2 expression following T cell activation", "setting": "IL-2 secretion; 600 nM and above", "result": "inhibited IL-2 expression"}]}
